Source: the NIST ThermoML archive (doi:10.1021/je030163d)

Experiment: xn = mol fraction of the nth substance listed
Conditions: 101.3 kPa, Liquid; for viscosity: Capillary tube (Ostwald / Ubbelohde) method; for mass density: Pycnometric method

CC(=O)c1ccccc1 [acetophenone] + CN(C)C=O
Conditions | mass density, 298.15 K [kg/m3] | mass density, 303.15 K [kg/m3] | mass density, 308.15 K [kg/m3] | mass density, 313.15 K [kg/m3] | viscosity, 298.15 K [mPa·s] | viscosity, 303.15 K [mPa·s] | viscosity, 308.15 K [mPa·s] | viscosity, 313.15 K [mPa·s]
x2 = 0 | 1024.1 | 1019.9 | 1015.7 | 1011.2 | 1.68 | 1.54 | 1.41 | 1.31
x2 = 0.1123 | 1018 | 1013.9 | 1009.7 | 1005.2 | 1.584 | 1.453 | 1.33 | 1.238
x2 = 0.1641 | 1015.6 | 1011.4 | 1007.2 | 1002.7 | 1.544 | 1.418 | 1.299 | 1.206
x2 = 0.308 | 1008.8 | 1004.6 | 1000.4 | 995.9 | 1.43 | 1.314 | 1.205 | 1.123
x2 = 0.4328 | 1001 | 996.8 | 992.5 | 988 | 1.328 | 1.221 | 1.122 | 1.047
x2 = 0.5286 | 994.2 | 989.9 | 985.6 | 981.1 | 1.246 | 1.148 | 1.056 | 0.987
x2 = 0.6256 | 985.8 | 981.4 | 977.1 | 972.5 | 1.156 | 1.069 | 0.984 | 0.922
x2 = 0.7165 | 977.2 | 972.8 | 968.4 | 963.8 | 1.072 | 0.995 | 0.918 | 0.862
x2 = 0.7943 | 969 | 964.5 | 960 | 955.3 | 0.999 | 0.93 | 0.861 | 0.81
x2 = 0.9378 | 952.5 | 947.9 | 943.3 | 938.5 | 0.863 | 0.809 | 0.755 | 0.714

OCc1ccccc1 [benzenemethanol] + CN(C)C=O
Conditions | mass density, 298.15 K [kg/m3] | mass density, 303.15 K [kg/m3] | mass density, 308.15 K [kg/m3] | mass density, 313.15 K [kg/m3] | viscosity, 298.15 K [mPa·s] | viscosity, 303.15 K [mPa·s] | viscosity, 308.15 K [mPa·s] | viscosity, 313.15 K [mPa·s]
x2 = 0 | 1041.3 | 1037.5 | 1033.7 | 1029.4 | 5.16 | 4.67 | 4.004 | 3.52
x2 = 0.1088 | 1036.1 | 1032.3 | 1028.5 | 1024.3 | 4.473 | 4.06 | 3.51 | 3.106
x2 = 0.1712 | 1032.5 | 1028.7 | 1024.9 | 1020.6 | 4.011 | 3.648 | 3.17 | 2.817
x2 = 0.3055 | 1022.7 | 1018.8 | 1014.9 | 1010.6 | 3.14 | 2.87 | 2.517 | 2.26
x2 = 0.4003 | 1014.8 | 1010.8 | 1006.8 | 1002.4 | 2.59 | 2.378 | 2.1 | 1.9
x2 = 0.5393 | 1001.3 | 997.2 | 993.1 | 988.7 | 2.02 | 1.86 | 1.67 | 1.52
x2 = 0.5865 | 996.1 | 992 | 987.9 | 983.4 | 1.85 | 1.71 | 1.541 | 1.411
x2 = 0.717 | 980.7 | 976.4 | 972.1 | 967.6 | 1.44 | 1.335 | 1.218 | 1.127
x2 = 0.7962 | 970.3 | 965.9 | 961.5 | 956.9 | 1.23 | 1.146 | 1.054 | 0.982
x2 = 0.8972 | 957.6 | 953.1 | 948.7 | 944 | 1.001 | 0.938 | 0.872 | 0.819
